The record followed here is Sander's compilation of Henry's law constants (doi:10.1021/je00026a010).

This data set can be described thus: Henry solubility constant Hcp at 298.15 K (mol/(m3 Pa)). The note with it: reference: Leighton and Calo (1981).
Consider `CC(Cl)(Cl)Cl` [1,1,1-trichloroethane], for which the “Henry solubility constant Hcp” value is 0.00049.
For `ClC(Cl)C(Cl)Cl` [1,1,2,2-tetrachloroethane] the value was 0.027; for `ClCC(Cl)Cl` [1,1,2-trichloroethane], 0.012.
The value for `C=C(Cl)Cl` [1,1-dichloroethene] was 0.00026; that for `ClCC(Cl)CCl` [1,2,3-trichloropropane] was 0.029.
For `CC(Cl)CCl` (stereo not given) [1,2-dichloropropane] the value was 0.0034; for `ClCCCCl` [1,3-dichloropropane], 0.01.
Turning to `ClCCCCCl` [1,4-dichlorobutane], the “Henry solubility constant Hcp” value came to 0.02.
For `ClCCCCCCl` [1,5-dichloropentane] the value was 0.018; for `CCCCCl` [1-chlorobutane], 0.00059; for `CCCCCCCl` [1-chlorohexane], 0.00041.
For `CCCCCCl` [1-chloropentane] the value was 0.00041.
For `CCC(C)Cl` (stereo not given) [2-chlorobutane] the value was 0.00041.
In the case of `c1ccccc1` [benzene], the “Henry solubility constant Hcp” value was 0.0018.
The value for `Clc1ccccc1` [chlorobenzene] was 0.003.
Take `ClCCl` [dichloromethane]: the “Henry solubility constant Hcp” value is 0.003.
On to `Cc1ccccc1` [methylbenzene], for which the “Henry solubility constant Hcp” value was determined as 0.0015.
The value for `ClC(Cl)=C(Cl)Cl` [tetrachloroethene] was 0.00061.
For `ClC(Cl)(Cl)Cl` [tetrachloromethane] the value was 0.00036; for `ClC=C(Cl)Cl` [trichloroethene], 0.001.
